The values below come from patent publication US10851116B2, “Bicyclic amines as novel JAK kinase inhibitors” (LEO Pharma A/S, priority 2017, dated 2020).

Holding throughout (format): biochemical
Assay [1] has as its target JAK1 (Homo sapiens (Human), UniProt P23458). The assay can be described thus: JAK kinase assay (HTRF), JAK1. Particulars: catalytic domain (aa 850-1154), GST-tag, ATP at Km (7 μM). The method, then: (§1) Human baculovirus-expressed JAK1, 2, 3 and TYK2 were purchased from Carna Biosciences, Inc. All four purified enzymes contain only the catalytic domain. JAK1 (aa 850-1154) and TYK2 (aa 871-1187) are expressed with an N-terminally fused GST-tag, and JAK2 and JAK3 with an N-terminally fused His-tag.
(§2) Inhibition of phosphorylation of a synthetic peptide was measured in an HTRF-based assay using the TK substrate-Biotin from the Cisbio HTRFKinEASE TK kit. First, 2 μl of TK solution (TK substrate-biotin in kinase buffer [1× enzymatic buffer from HTRFKinEASE TK kit, 1 mM DTT]) is added to a plate containing 1 μl prediluted compound (final assay concentration DMSO: 0.75%). Then, 5 μl kinase-ATP mix (prepared in kinase buffer) is added to the wells and the plates are incubated at RT for 20-30 min. For all four kinases a concentration of ATP that corresponded to the Km for ATP was used. The final concentrations of buffers, substrate, kinase and ATP were: JAK1: 50 mM Hepes buffer pH 7.0, 0.01% BSA, 10 mM MgCl2, 1 mM DTT, 7 μM ATP, 50 nM SEB, 1 μM TK Substrate-Biotin and 5 ng JAK1; JAK2: 50 mM Hepes buffer pH 7.0, 0.01% BSA, 5 mM MgCl2, 1 mM DTT, 4 μM ATP, 1 μM TK Substrate-Biotin and 0.1 ng JAK2; JAK3: 50 mM Hepes buffer pH 7.0, 0.01% BSA, 5 mM MgCl2, 1 mM DTT, 2 μM ATP, 1 μM TK Substrate-Biotin and 0.3 ng JAK3; TYK2: 50 mM Hepes buffer pH 7.0, 0.01% BSA, 5 mM MgCl2, 1 mM DTT, 13 μM ATP, 50 nM SEB, 1 μM TK Substrate-Biotin and 0.8 ng TYK2. Thereafter, the kinase reaction is stopped by adding 4 μl detection mix (final concentrations: 50 mM Hepes buffer pH 7.0, 0.01% BSA, 0.8 M KF, 20 mM EDTA, 42 nM Streptavidin-XL665 and 1:400 STK Ab Cryptate) and the plates are incubated overnight in the dark. The HTRF signal is read using an Envision plate reader.

The target of assay [2] is JAK2 (Homo sapiens (Human), UniProt O60674). In words: JAK kinase assay (HTRF), JAK2. The settings on record: catalytic domain, His-tag, ATP at Km (4 μM). The method, then: as §1, §2
For orientation: TR-FRET usually uses a lanthanide donor and a delayed reading to cut background.

In assay [3] the target is JAK3 (Homo sapiens (Human), UniProt P52333). In words: JAK kinase assay (HTRF), JAK3. The settings on record: catalytic domain, His-tag, ATP at Km (2 μM). How it is done:
as §1, §2

Assay [4] concerns the target TYK2 (Homo sapiens (Human), UniProt P29597). In words: JAK kinase assay (HTRF), TYK2. The settings on record: catalytic domain (aa 871-1187), GST-tag, ATP at Km (13 μM). How it is done: as §1, §2

Usually EC50 stands for the concentration that produces a half-maximal response.

Structures are written as SMILES.

TYK2, sequence (P29597 871-1187): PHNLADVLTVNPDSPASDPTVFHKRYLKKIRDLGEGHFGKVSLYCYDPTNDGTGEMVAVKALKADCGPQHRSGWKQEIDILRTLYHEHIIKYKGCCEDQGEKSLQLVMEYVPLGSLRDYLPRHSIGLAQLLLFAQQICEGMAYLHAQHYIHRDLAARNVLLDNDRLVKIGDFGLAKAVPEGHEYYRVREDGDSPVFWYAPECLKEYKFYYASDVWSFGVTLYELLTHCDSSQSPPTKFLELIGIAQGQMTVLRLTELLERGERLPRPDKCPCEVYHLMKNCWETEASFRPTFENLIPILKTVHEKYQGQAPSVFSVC
JAK3, sequence (P52333 822-1111): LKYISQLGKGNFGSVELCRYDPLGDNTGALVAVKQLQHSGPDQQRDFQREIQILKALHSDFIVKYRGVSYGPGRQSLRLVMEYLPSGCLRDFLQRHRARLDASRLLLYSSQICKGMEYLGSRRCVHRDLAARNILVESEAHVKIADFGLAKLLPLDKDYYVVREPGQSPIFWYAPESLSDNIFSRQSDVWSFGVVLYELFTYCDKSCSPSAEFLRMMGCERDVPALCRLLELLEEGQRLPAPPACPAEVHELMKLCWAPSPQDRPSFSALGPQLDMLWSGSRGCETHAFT
JAK2, sequence (O60674 849-1124): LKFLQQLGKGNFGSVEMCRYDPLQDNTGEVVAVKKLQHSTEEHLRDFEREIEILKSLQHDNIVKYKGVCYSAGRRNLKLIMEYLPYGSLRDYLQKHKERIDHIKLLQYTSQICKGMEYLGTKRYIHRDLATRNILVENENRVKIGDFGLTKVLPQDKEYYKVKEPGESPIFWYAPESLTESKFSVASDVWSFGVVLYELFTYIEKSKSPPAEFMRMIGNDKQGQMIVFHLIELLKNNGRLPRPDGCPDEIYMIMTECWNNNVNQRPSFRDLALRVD
JAK1, sequence (P23458 850-1154): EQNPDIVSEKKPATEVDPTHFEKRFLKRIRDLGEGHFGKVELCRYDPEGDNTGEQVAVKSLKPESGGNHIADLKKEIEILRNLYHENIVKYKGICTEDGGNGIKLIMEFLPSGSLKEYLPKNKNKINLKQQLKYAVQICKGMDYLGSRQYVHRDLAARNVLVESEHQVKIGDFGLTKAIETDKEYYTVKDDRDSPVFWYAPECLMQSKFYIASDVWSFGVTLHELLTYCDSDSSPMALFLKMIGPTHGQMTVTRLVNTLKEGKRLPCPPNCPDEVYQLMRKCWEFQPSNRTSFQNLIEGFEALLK

As to `C[C@]12CN(C(=O)CC#N)C[C@H]1CCN(c1ncnc3[nH]ccc13)C2` (racemic) [Example 32, 3-[(3aS*,7aS*)-3a-methyl-5-(7H-pyrrolo[2,3-d]pyrimidin-4-yl)-1,3,4,6,7,7a-hexahydropyrrolo[3,4-c]pyridin-2-yl]-3-oxo-propanenitrile], the EC50 in assay [1] is 16 nM; in assay [2] it was 67 nM; in assay [3], 162 nM; in assay [4], 307 nM.
The matching figures for `C[C@]12CN(c3ncc(C#N)cn3)CC[C@H]1CCN(c1ncnc3[nH]ccc13)C2` (racemic) [Example 7, 2-[(4aR*,8aS*)-8a-methyl-7-(7H-pyrrolo[2,3-d]pyrimidin-4-yl)-3,4,4a,5,6,8-hexahydro-1H-2,7-naphthyridin-2-yl]pyrimidine-5-carbonitrile]: 46 nM, 140 nM, 5 nM and 740 nM.
`C[C@@]12CN(c3ncnc4[nH]ccc34)CC[C@@H]1CN(S(=O)(=O)NCC#N)C2` (racemic) [Example 30, (3aS*,7aS*)—N-(cyanomethyl)-3a-methyl-5-(7H-pyrrolo[2,3-d]pyrimidin-4-yl)-1,3,4,6,7,7a-hexahydropyrrolo[3,4-c]pyridine-2-sulfonamide]: the EC50 in assay [1] came out at 29 nM; in assay [2], 56 nM; in assay [3], 91 nM; in assay [4], 364 nM.
On to `C[C@]12CN(c3ccc(S(C)(=O)=O)cc3)C[C@H]1CCN(c1ncnc3[nH]ccc13)C2` (racemic) [Example 38, 4-[(3aR*,7aS*)-3a-methyl-2-(4-methylsulfonylphenyl)-1,3,4,6,7,7a-hexahydropyrrolo[3,4-c]pyridin-5-yl]-7H-pyrrolo[2,3-d]pyrimidine], for which the EC50 in assay [1] is 7 nM; in assay [2] it was 32 nM; in assay [3], 71 nM; in assay [4], 335 nM.
For `C[C@]12CN(c3ccc(S(C)(=O)=O)cn3)C[C@H]1CCN(c1ncnc3[nH]ccc13)C2` (racemic) [Example 35] the same measures were 13 nM, 131 nM, 95 nM and 2440 nM.
The matching figures for `C[C@]12CN(c3ncc(Br)cc3CO)C[C@H]1CCN(c1ncnc3[nH]ccc13)C2` (racemic) [Example 37, [2-[(3aS*,7aS*)-3a-methyl-5-(7H-pyrrolo[2,3-d]pyrimidin-4-yl)-1,3,4,6,7,7a-hexahydropyrrolo[3,4-c]pyridin-2-yl]-5-bromo-3-pyridyl]methanol]: 12 nM, 48 nM, 38 nM and 611 nM.
Consider `CC[C@@]12CN(C#N)CC[C@@H]1CCN(c1ncnc3[nH]ccc13)C2` [Example 21, (4aS,8aR)-8a-ethyl-7-(7H-pyrrolo[2,3-d]pyrimidin-4-yl)-3,4,4a,5,6,8-hexahydro-1H-2,7-naphthyridine-2-carbonitrile], for which the 50% effective concentration (EC50) came out at 80 nM in assay [1], 187 nM in assay [2], 578 nM in assay [3] and 988 nM in assay [4].
For `C[C@]12CN(c3ncc(C#N)cn3)C[C@H]1CCN(c1ncnc3[nH]ccc13)C2` (racemic) [Example 41, 2-[(3aS*,7aS*)-3a-methyl-5-(7H-pyrrolo[2,3-d]pyrimidin-4-yl)-1,3,4,6,7,7a-hexahydropyrrolo[3,4-c]pyridin-2-yl]pyrimidine-5-carbonitrile] the same measures were 49 nM, 216 nM, 70 nM and 2040 nM.
The matching figures for `C[C@@]12CN(C#N)C[C@@H]1CCN(c1ncnc3[nH]ccc13)C2` [Example 28, (3aR,7aR)-3a-methyl-5-(7H-pyrrolo[2,3-d]pyrimidin-4-yl)-1,3,4,6,7,7a-hexahydropyrrolo[3,4-c]pyridine-2-carbonitrile]: 240 nM, 827 nM, 2180 nM and 2470 nM.
The matching figures for `CC[C@]12CN(c3nc(C#N)cs3)CC[C@H]1CCN(c1ncnc3[nH]ccc13)C2` (relative stereo) [Example 25, 2-[(4aR*,8aS*)-8a-ethyl-7-(7H-pyrrolo[2,3-d]pyrimidin-4-yl)-3,4,4a,5,6,8-hexahydro-1H-2,7-naphthyridin-2-yl]thiazole-4-carbonitrile]: 46 nM, 139 nM, 29 nM and 1110 nM.
Regarding `CC[C@]12CN(c3ncnc4[nH]ccc34)CC[C@H]1CCN(S(N)(=O)=O)C2` [Example 19, (4aS,8aR)-8a-ethyl-7-(7H-pyrrolo[2,3-d]pyrimidin-4-yl)-3,4,4a,5,6,8-hexahydro-1H-2,7-naphthyridine-2-sulfonamide], the EC50 in assay [1] turned out to be 146 nM; in assay [2] it was 208 nM; in assay [3], 151 nM; in assay [4], 1880 nM.
For `C[C@@]12CN(c3ncnc4[nH]ccc34)CC[C@@H]1CCN(S(C)(=O)=O)C2` (racemic) [Example 13, (4aR*,8aS*)-8a-methyl-2-methylsulfonyl-7-(7H-pyrrolo[2,3-d]pyrimidin-4-yl)-3,4,4a,5,6,8-hexahydro-1H-2,7-naphthyridine] the same measures were 72 nM, 90 nM, 75 nM and 326 nM.
On to `C[C@]12CN(c3ccc(C#N)cn3)CC[C@H]1CCN(c1ncnc3[nH]ccc13)C2` (racemic) [Example 5, 6-[(4aR*,8aS*)-8a-methyl-7-(7H-pyrrolo[2,3-d]pyrimidin-4-yl)-3,4,4a,5,6,8-hexahydro-1H-2,7-naphthyridin-2-yl]pyridine-3-carbonitrile], for which the EC50 in assay [1] was 10 nM; in assay [2], 80 nM; in assay [3] it was 7 nM; in assay [4] it was 453 nM.
The matching figures for `Cc1nc(N2C[C@H]3CCN(c4ncnc5[nH]ccc45)C[C@@]3(C)C2)ccc1C#N` (racemic) [Example 45, 6-[(3aR*,7aS*)-3a-methyl-5-(7H-pyrrolo[2,3-d]pyrimidin-4-yl)-1,3,4,6,7,7a-hexahydropyrrolo[3,4-c]pyridin-2-yl]-2-methyl-pyridine-3-carbonitrile]: 30 nM, 103 nM, 120 nM and 1190 nM.
For `C[C@@]12CN(c3ncnc4[nH]ccc34)CC[C@@H]1CN(S(C)(=O)=O)C2` (racemic) [Example 26, 4-[(3aS*,7aS*)-3a-methyl-2-methylsulfonyl-1,3,4,6,7,7a-hexahydropyrrolo[3,4-c]pyridin-5-yl]-7H-pyrrolo[2,3-d]pyrimidine] the same measures were 93 nM, 154 nM, 243 nM and 898 nM.
Regarding `CCC12CNCCC1CCN(c1ncnc3[nH]ccc13)C2` (stereo not shown) [Intermediate 10, 8a-ethyl-7-(7H-pyrrolo[2,3-d]pyrimidin-4-yl)-1,2,3,4,4a,5,6,8-octahydro-2,7-naphthyridine], the EC50 in assay [1] worked out at 16 nM; in assay [2], 25 nM; in assay [3] it was 157 nM; in assay [4], 1980 nM.
With `Cc1cc(C#N)cnc1N1C[C@H]2CCN(c3ncnc4[nH]ccc34)C[C@@]2(C)C1` (racemic) [Example 44], the EC50 came to 65 nM in assay [1], 179 nM in assay [2], 99 nM in assay [3] and 2020 nM in assay [4].
`C[C@]12CN(c3ccncn3)C[C@H]1CCN(c1ncnc3[nH]ccc13)C2` (racemic) [Example 39, 4-[(3aR*,7aS*)-3a-methyl-2-pyrimidin-4-yl-1,3,4,6,7,7a-hexahydropyrrolo[3,4-c]pyridin-5-yl]-7H-pyrrolo[2,3-d]pyrimidine]: the EC50 was 18 nM in assay [1], 72 nM in assay [2], 199 nM in assay [3] and 775 nM in assay [4].
With `C[C@]12CN(c3cnc(C#N)cn3)CC[C@H]1CCN(c1ncnc3[nH]ccc13)C2` (racemic) [Example 4, 5-[(4aR*,8aS*)-8a-methyl-7-(7H-pyrrolo[2,3-d]pyrimidin-4-yl)-3,4,4a,5,6,8-hexahydro-1H-2,7-naphthyridin-2-yl]pyrazine-2-carbonitrile], the EC50 turned out to be 4 nM in assay [1], 25 nM in assay [2], 4 nM in assay [3] and 148 nM in assay [4].
